Assay results reported in the supplement of paper PMC11208160.

Assay: recombinant barcode read abundance after kanamycin selection (control-corrected) (log10(CPM+1)); higher = more efficient recombination; sequences stand for … in AGTGCAGAGAAAATCGGCCAGTTTTCTCTGCCTGCAGTCCGCATGCCGT…ATTTATGCAGCGGACTGCCTTTCTCCCAAAGTGATAAACCGGACAGTATCATGGACCGGTTTTCCCGGTAATCCGTATTTGCAAGGTTGGTTTCACT; site = the 11-nt target
Method in brief: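 Two replicates per condition were plated: chloramphenicol/ampicillin LB agar for the control, and chloramphenicol/ampicillin/kanamycin with 0.1 mM IPTG for selection. The pooled E. coli screen behind them paired targets with IS621 bridge RNA target-binding loops. Recombination efficiency is expressed from averaged, control-corrected barcode counts per million at recombinant junctions, as log10(CPM+1).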

GGACACCCTTGGGTTCTAACCTGTTGCCTTT [GGACACCCTAG_LTGcore_CT_RTGcore_AA] (site GGACACCCTAG) (LTG core: CT, RTG core: AA)
recombinant barcode read abundance (log10): 1.04

GGACACCGCTGGGTTCTAACCTGTTGCCTGC [GGACACCCTAG_LTGcore_GC_RTGcore_GC] (site GGACACCCTAG) (LTG core: GC, RTG core: GC)
recombinant barcode read abundance (log10): 0.0534

GGACACCGGTGGGTTCTAACCTGTTGCCTCC [GGACACCCTAG_LTGcore_GG_RTGcore_GG] (site GGACACCCTAG) (LTG core: GG, RTG core: GG)
recombinant barcode read abundance (log10): 0.0801

GGACACCGTTGGGTTCTAACCTGTTGCCTAC [GGACACCCTAG_LTGcore_GT_RTGcore_GT] (site GGACACCCTAG) (LTG core: GT, RTG core: GT)
recombinant barcode read abundance (log10): 0.944

GGACACCTATGGGTTCTAACCTGTTGCCTAG [GGACACCCTAG_LTGcore_TA_RTGcore_CT] (site GGACACCCTAG) (LTG core: TA, RTG core: CT)
recombinant barcode read abundance (log10): 0.094

GGACACCTATGGGTTCTAACCTGTTGCCTTA [GGACACCCTAG_LTGcore_TA_RTGcore_TA] (site GGACACCCTAG) (LTG core: TA, RTG core: TA)
recombinant barcode read abundance (log10): 0

GGCTCCCAATGGGTTCTAACCTGTTGCGGTT [GGCTCCCCTCC_LTGcore_AA_RTGcore_AA] (site GGCTCCCCTCC) (LTG core: AA, RTG core: AA)
recombinant barcode read abundance (log10): 0.102

GGCTCCCCATGGGTTCTAACCTGTTGCGGAG [GGCTCCCCTCC_LTGcore_CA_RTGcore_CT] (site GGCTCCCCTCC) (LTG core: CA, RTG core: CT)
recombinant barcode read abundance (log10): 0.0917

GGCTCCCCTTGGGTTCTAACCTGTTGCGGAT [GGCTCCCCTCC_LTGcore_CT_RTGcore_AT] (site GGCTCCCCTCC) (LTG core: CT, RTG core: AT)
recombinant barcode read abundance (log10): 0.0958

GGCTCCCCTTGGGTTCTAACCTGTTGCGGCC [GGCTCCCCTCC_LTGcore_CT_RTGcore_GG] (site GGCTCCCCTCC) (LTG core: CT, RTG core: GG)
recombinant barcode read abundance (log10): 0.131

GGCTCCCCTTGGGTTCTAACCTGTTGCGGTA [GGCTCCCCTCC_LTGcore_CT_RTGcore_TA] (site GGCTCCCCTCC) (LTG core: CT, RTG core: TA)
recombinant barcode read abundance (log10): 0.101

GGCTCCCCTTGGGTTCTAACCTGTTGCGGTC [GGCTCCCCTCC_LTGcore_CT_RTGcore_GA] (site GGCTCCCCTCC) (LTG core: CT, RTG core: GA)
recombinant barcode read abundance (log10): 0.0253

GGCTCCCCTTGGGTTCTAACCTGTTGCGGTG [GGCTCCCCTCC_LTGcore_CT_RTGcore_CA] (site GGCTCCCCTCC) (LTG core: CT, RTG core: CA)
recombinant barcode read abundance (log10): 0.251

GGCTCCCGGTGGGTTCTAACCTGTTGCGGCC [GGCTCCCCTCC_LTGcore_GG_RTGcore_GG] (site GGCTCCCCTCC) (LTG core: GG, RTG core: GG)
recombinant barcode read abundance (log10): 0.203

GGCTCCCGTTGGGTTCTAACCTGTTGCGGAC [GGCTCCCCTCC_LTGcore_GT_RTGcore_GT] (site GGCTCCCCTCC) (LTG core: GT, RTG core: GT)
recombinant barcode read abundance (log10): 0.259

GGCTCCCTTTGGGTTCTAACCTGTTGCGGAA [GGCTCCCCTCC_LTGcore_TT_RTGcore_TT] (site GGCTCCCCTCC) (LTG core: TT, RTG core: TT)
recombinant barcode read abundance (log10): 0.0992

GGCTCCCTTTGGGTTCTAACCTGTTGCGGAG [GGCTCCCCTCC_LTGcore_TT_RTGcore_CT] (site GGCTCCCCTCC) (LTG core: TT, RTG core: CT)
recombinant barcode read abundance (log10): 0.0927

GGGAGCCAATGGGTTCTAACCTGTTGCTGAG [GGGAGCCCTCA_LTGcore_AA_RTGcore_CT] (site GGGAGCCCTCA) (LTG core: AA, RTG core: CT)
recombinant barcode read abundance (log10): 0.235

GGGAGCCATTGGGTTCTAACCTGTTGCTGAT [GGGAGCCCTCA_LTGcore_AT_RTGcore_AT] (site GGGAGCCCTCA) (LTG core: AT, RTG core: AT)
recombinant barcode read abundance (log10): 0.574

GGGAGCCCTTGGGTTCTAACCTGTTGCTGCA [GGGAGCCCTCA_LTGcore_CT_RTGcore_TG] (site GGGAGCCCTCA) (LTG core: CT, RTG core: TG)
recombinant barcode read abundance (log10): 0.122

GGGAGCCCTTGGGTTCTAACCTGTTGCTGCG [GGGAGCCCTCA_LTGcore_CT_RTGcore_CG] (site GGGAGCCCTCA) (LTG core: CT, RTG core: CG)
recombinant barcode read abundance (log10): 0.147

GGGAGCCCTTGGGTTCTAACCTGTTGCTGTG [GGGAGCCCTCA_LTGcore_CT_RTGcore_CA] (site GGGAGCCCTCA) (LTG core: CT, RTG core: CA)
recombinant barcode read abundance (log10): 0.589

GGGAGCCTTTGGGTTCTAACCTGTTGCTGAG [GGGAGCCCTCA_LTGcore_TT_RTGcore_CT] (site GGGAGCCCTCA) (LTG core: TT, RTG core: CT)
recombinant barcode read abundance (log10): 0.364

GGGCGGAAATGGGTTCTAACCTGTTGCGGAG [GGGCGGACTCC_LTGcore_AA_RTGcore_CT] (site GGGCGGACTCC) (LTG core: AA, RTG core: CT)
recombinant barcode read abundance (log10): 0.131

GGGCGGACATGGGTTCTAACCTGTTGCGGAG [GGGCGGACTCC_LTGcore_CA_RTGcore_CT] (site GGGCGGACTCC) (LTG core: CA, RTG core: CT)
recombinant barcode read abundance (log10): 2.27

GGGCGGACGTGGGTTCTAACCTGTTGCGGAG [GGGCGGACTCC_LTGcore_CG_RTGcore_CT] (site GGGCGGACTCC) (LTG core: CG, RTG core: CT)
recombinant barcode read abundance (log10): 1.66

GGGCGGACTTGGGTTCTAACCTGTTGCGGGC [GGGCGGACTCC_LTGcore_CT_RTGcore_GC] (site GGGCGGACTCC) (LTG core: CT, RTG core: GC)
recombinant barcode read abundance (log10): 0.131

GGGCGGACTTGGGTTCTAACCTGTTGCGGGT [GGGCGGACTCC_LTGcore_CT_RTGcore_AC] (site GGGCGGACTCC) (LTG core: CT, RTG core: AC)
recombinant barcode read abundance (log10): 0.273

GGGCGGAGTTGGGTTCTAACCTGTTGCGGAG [GGGCGGACTCC_LTGcore_GT_RTGcore_CT] (site GGGCGGACTCC) (LTG core: GT, RTG core: CT)
recombinant barcode read abundance (log10): 0.389

GGGCGGATCTGGGTTCTAACCTGTTGCGGGA [GGGCGGACTCC_LTGcore_TC_RTGcore_TC] (site GGGCGGACTCC) (LTG core: TC, RTG core: TC)
recombinant barcode read abundance (log10): 0.265

GGGCGTGAGTGGGTTCTAACCTGTTGCCTAG [GGGCGTGCTAG_LTGcore_AG_RTGcore_CT] (site GGGCGTGCTAG) (LTG core: AG, RTG core: CT)
recombinant barcode read abundance (log10): 0.154

GGGCGTGATTGGGTTCTAACCTGTTGCCTAT [GGGCGTGCTAG_LTGcore_AT_RTGcore_AT] (site GGGCGTGCTAG) (LTG core: AT, RTG core: AT)
recombinant barcode read abundance (log10): 0.0806

GGGCGTGCTTGGGTTCTAACCTGTTGCCTCA [GGGCGTGCTAG_LTGcore_CT_RTGcore_TG] (site GGGCGTGCTAG) (LTG core: CT, RTG core: TG)
recombinant barcode read abundance (log10): 1.06

GGGCGTGCTTGGGTTCTAACCTGTTGCCTGG [GGGCGTGCTAG_LTGcore_CT_RTGcore_CC] (site GGGCGTGCTAG) (LTG core: CT, RTG core: CC)
recombinant barcode read abundance (log10): 0.301

GGGCGTGCTTGGGTTCTAACCTGTTGCCTTG [GGGCGTGCTAG_LTGcore_CT_RTGcore_CA] (site GGGCGTGCTAG) (LTG core: CT, RTG core: CA)
recombinant barcode read abundance (log10): 0.0774

GGGCGTGGATGGGTTCTAACCTGTTGCCTTC [GGGCGTGCTAG_LTGcore_GA_RTGcore_GA] (site GGGCGTGCTAG) (LTG core: GA, RTG core: GA)
recombinant barcode read abundance (log10): 0.0142

GGGCGTGGCTGGGTTCTAACCTGTTGCCTGC [GGGCGTGCTAG_LTGcore_GC_RTGcore_GC] (site GGGCGTGCTAG) (LTG core: GC, RTG core: GC)
recombinant barcode read abundance (log10): 0

GGGCGTGGGTGGGTTCTAACCTGTTGCCTAG [GGGCGTGCTAG_LTGcore_GG_RTGcore_CT] (site GGGCGTGCTAG) (LTG core: GG, RTG core: CT)
recombinant barcode read abundance (log10): 0.188

GGGCGTGGTTGGGTTCTAACCTGTTGCCTAG [GGGCGTGCTAG_LTGcore_GT_RTGcore_CT] (site GGGCGTGCTAG) (LTG core: GT, RTG core: CT)
recombinant barcode read abundance (log10): 0.0791

GGGCGTGTCTGGGTTCTAACCTGTTGCCTAG [GGGCGTGCTAG_LTGcore_TC_RTGcore_CT] (site GGGCGTGCTAG) (LTG core: TC, RTG core: CT)
recombinant barcode read abundance (log10): 0.241

GGGCGTGTTTGGGTTCTAACCTGTTGCCTAA [GGGCGTGCTAG_LTGcore_TT_RTGcore_TT] (site GGGCGTGCTAG) (LTG core: TT, RTG core: TT)
recombinant barcode read abundance (log10): 0.0616

GGTGCCCAATGGGTTCTAACCTGTTGCCGTT [GGTGCCCCTCG_LTGcore_AA_RTGcore_AA] (site GGTGCCCCTCG) (LTG core: AA, RTG core: AA)
recombinant barcode read abundance (log10): 0.404

GGTGCCCATTGGGTTCTAACCTGTTGCCGAT [GGTGCCCCTCG_LTGcore_AT_RTGcore_AT] (site GGTGCCCCTCG) (LTG core: AT, RTG core: AT)
recombinant barcode read abundance (log10): 0.0482

GGTGCCCCCTGGGTTCTAACCTGTTGCCGAG [GGTGCCCCTCG_LTGcore_CC_RTGcore_CT] (site GGTGCCCCTCG) (LTG core: CC, RTG core: CT)
recombinant barcode read abundance (log10): 0.15

GGTGCCCCCTGGGTTCTAACCTGTTGCCGGG [GGTGCCCCTCG_LTGcore_CC_RTGcore_CC] (site GGTGCCCCTCG) (LTG core: CC, RTG core: CC)
recombinant barcode read abundance (log10): 0.387
